Results as given in the NIST ThermoML archive (doi:10.1021/je700755t).
± gives the expanded uncertainty stated by the source.

Legend:
[1] = 101 kPa, Liquid; for viscosity: Capillary tube (Ostwald / Ubbelohde) method
[2] = xn = mol fraction of the nth substance listed; settings: 101 kPa, Liquid, x2 = 0; for viscosity: Capillary tube (Ostwald / Ubbelohde) method

| SMILES | mass density ([1]; 303.15 K) | viscosity ([1]; 303.15 K) | mass density ([1]; 313.15 K) | viscosity ([1]; 313.15 K) | mass density ([1]; 323.15 K) | viscosity ([1]; 323.15 K) | mass density ([1]; 333.15 K) | viscosity ([1]; 333.15 K) | mass density ([1]; 343.15 K) | viscosity ([1]; 343.15 K) | mass density ([1]; 353.15 K) | viscosity ([1]; 353.15 K) | viscosity ([2]; 303.15 K) | mass density ([2]; 303.15 K) | viscosity ([2]; 313.15 K) | mass density ([2]; 313.15 K) | viscosity ([2]; 323.15 K) | mass density ([2]; 323.15 K) | viscosity ([2]; 333.15 K) | mass density ([2]; 333.15 K) | also measured |
| --- | --- | --- | --- | --- | --- | --- | --- | --- | --- | --- | --- | --- | --- | --- | --- | --- | --- | --- | --- | --- | --- |
| O=CO [formic acid] | 1205.07 ± 0.96 kg/m3 | 1.437 ± 0.013 mPa·s | 1192.81 ± 0.92 kg/m3 | 1.205 ± 0.012 mPa·s | 1180.63 ± 0.89 kg/m3 | 1.022 ± 0.01 mPa·s | 1167.44 ± 0.85 kg/m3 | 0.879 ± 0.009 mPa·s | 1154.99 ± 0.82 kg/m3 | 0.766 ± 0.009 mPa·s | 1142.08 ± 0.78 kg/m3 | 0.677 ± 0.008 mPa·s |  |  |  |  |  |  |  |  |  |
| CN(C)C=O [dimethylformamide] + O=CO |  |  |  |  |  |  |  |  |  |  |  |  | 0.76 ± 0.008 mPa·s | 939.45 ± 0.34 kg/m3 | 0.675 ± 0.007 mPa·s | 929.86 ± 0.36 kg/m3 | 0.608 ± 0.007 mPa·s | 920.92 ± 0.38 kg/m3 | 0.552 ± 0.007 mPa·s | 910.64 ± 0.41 kg/m3 | viscosity ([2]; 343.15 K): 0.502 ± 0.007 mPa·s; mass density ([2]; 343.15 K): 901.72 ± 0.43 kg/m3; viscosity ([2]; 353.15 K): 0.46 ± 0.007 mPa·s; mass density ([2]; 353.15 K): 891.44 ± 0.45 kg/m3 |
| CN(C)C=O [dimethylformamide] | 939.45 ± 0.34 kg/m3 | 0.76 ± 0.008 mPa·s | 929.86 ± 0.36 kg/m3 | 0.675 ± 0.007 mPa·s | 920.92 ± 0.38 kg/m3 | 0.608 ± 0.007 mPa·s | 910.64 ± 0.41 kg/m3 | 0.552 ± 0.007 mPa·s | 901.72 ± 0.43 kg/m3 | 0.502 ± 0.007 mPa·s | 891.44 ± 0.45 kg/m3 | 0.46 ± 0.007 mPa·s |  |  |  |  |  |  |  |  |  |
| CC(=O)O [acetic acid] | 1038.66 ± 0.42 kg/m3 | 1.059 ± 0.009 mPa·s | 1027.37 ± 0.39 kg/m3 | 0.92 ± 0.009 mPa·s | 1016.08 ± 0.35 kg/m3 | 0.804 ± 0.008 mPa·s | 1005.04 ± 0.32 kg/m3 | 0.709 ± 0.008 mPa·s | 993.69 ± 0.32 kg/m3 | 0.632 ± 0.007 mPa·s | 982.95 ± 0.35 kg/m3 | 0.57 ± 0.007 mPa·s |  |  |  |  |  |  |  |  |  |
| CN(C)C=O [dimethylformamide] + CC(=O)O |  |  |  |  |  |  |  |  |  |  |  |  | 0.76 ± 0.008 mPa·s | 939.45 ± 0.45 kg/m3 | 0.675 ± 0.007 mPa·s | 929.86 ± 0.48 kg/m3 | 0.608 ± 0.007 mPa·s | 920.92 ± 0.5 kg/m3 | 0.552 ± 0.007 mPa·s | 910.64 ± 0.54 kg/m3 | viscosity ([2]; 343.15 K): 0.502 ± 0.007 mPa·s; mass density ([2]; 343.15 K): 901.72 ± 0.56 kg/m3; viscosity ([2]; 353.15 K): 0.46 ± 0.007 mPa·s; mass density ([2]; 353.15 K): 891.44 ± 0.6 kg/m3 |
